Source: PubChem BioAssay (NCI)
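Cultured in 96-well plates, cells were exposed to test compound for 48 hours across five concentrations. Definition used: TGI = concentration required for complete inhibition of growth.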

Key:
Test in all cases: NCI-60 cell line screen, 48 h
[1] = test system: NCI-H460 lung
[2] = test system: MDA-MB-231 breast
[3] = test system: RXF 393 renal
[4] = test system: SK-MEL-28 melanoma
[5] = test system: NCI-H226 lung
[6] = test system: OVCAR-4 ovarian
[7] = test system: A498 renal
[8] = test system: NCI-H522 lung
[9] = test system: HOP-92 NSCLC
[10] = test system: SW-620 colon
[11] = test system: PC-3 prostate
[12] = test system: SNB-19 CNS
[13] = test system: TK-10 renal
[14] = test system: HCT-15 colon
[15] = test system: SF-539 CNS
[16] = test system: BT-549 breast
[17] = test system: 786-0 renal
[18] = test system: UACC-62 melanoma
[19] = test system: T-47D breast
[20] = test system: CCRF-CEM leukemia

Compound | TGI [1] | TGI [2] | TGI [3] | TGI [4] | TGI [5] | TGI [6] | TGI [7] | TGI [8] | TGI [9] | TGI [10] | TGI [11] | TGI [12] | TGI [13] | TGI [14] | TGI [15] | TGI [16] | TGI [17] | TGI [18] | TGI [19] | TGI [20]
CCCCCC(=O)Nc1n[nH]nc1C(N)=O | > 100 µM | > 100 µM | > 100 µM | > 100 µM | > 100 µM | > 100 µM | > 100 µM | > 100 µM | > 100 µM | > 100 µM | > 100 µM | > 100 µM | > 100 µM | > 100 µM | > 100 µM | > 100 µM | > 100 µM | > 100 µM | > 100 µM | > 100 µM
Fc1cc(C2=C[C@H](c3ccc(Cl)cc3)NC(=S)N2)c(Cl)cc1Cl | > 100 µM | 88.7 µM | > 100 µM | > 100 µM | > 100 µM | > 100 µM | 89.6 µM | > 100 µM | > 100 µM | > 100 µM | > 100 µM | > 100 µM | > 100 µM | > 100 µM | > 100 µM | > 100 µM | > 100 µM | > 100 µM | > 100 µM | > 100 µM
